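Grown in 96-well plates, cells were treated for 48 hours with each compound at five concentrations. Insufficient inhibition: endpoint recorded as highest concentration tested. The concentration for 50% growth inhibition is given as GI50.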 Activity calls are given as the source filed them. No stated cut-off is given here; in the data, active = GI50 up to about 1.1 µM and inactive = higher.
Assays:
Assay in all cases: DTP human tumour cell line panel, 48 h
M14 = test system: M14
SK-MEL-28 = test system: SK-MEL-28
IGROV-1 = test system: IGROV-1
786-0 = test system: 786-0
SR = test system: SR
NCI-H226 = test system: NCI-H226
OVCAR-5 = test system: OVCAR-5
HOP-62 = test system: HOP-62
UACC-257 = test system: UACC-257
KM12 = test system: KM12
OVCAR-4 = test system: OVCAR-4
COLO 205 = test system: COLO 205
MOLT-4 = test system: MOLT-4
OVCAR-3 = test system: OVCAR-3
HCC 2998 = test system: HCC 2998
TK-10 = test system: TK-10
LOX IMVI = test system: LOX IMVI
ACHN = test system: ACHN
DU-145 = test system: DU-145
MDA-N = test system: MDA-N

Row | SMILES | GI50 (M14) | GI50 (SK-MEL-28) | GI50 (IGROV-1) | GI50 (786-0) | GI50 (SR) | GI50 (NCI-H226) | GI50 (OVCAR-5) | GI50 (HOP-62) | GI50 (UACC-257) | GI50 (KM12) | GI50 (OVCAR-4) | GI50 (COLO 205) | GI50 (MOLT-4) | GI50 (OVCAR-3) | GI50 (HCC 2998) | GI50 (TK-10) | GI50 (LOX IMVI) | GI50 (ACHN) | GI50 (DU-145) | GI50 (MDA-N)
1 | CC(C)[Si](OCC1CC(C[C@H]2CC(C[C@H]3C[C@@H](CO[Si](C(C)C)(C(C)C)C(C)C)OC(C)(C)O3)OC(C)(C)O2)OC(C)(C)O1)(C(C)C)C(C)C (stereo not given in full) | > 100 µM (inactive) | > 100 µM (inactive) | > 100 µM (inactive) | > 100 µM (inactive) | > 100 µM (inactive) | > 100 µM (inactive) | > 100 µM (inactive) | > 100 µM (inactive) | > 100 µM (inactive) | > 100 µM (inactive) | > 100 µM (inactive) | > 100 µM (inactive) | > 100 µM (inactive) | > 100 µM (inactive) | > 100 µM (inactive) | > 100 µM (inactive) | > 100 µM (inactive) | > 100 µM (inactive) | – | –
2 | Cc1ccc(NC(=O)CCc2nnc3s/c(=C\c4cccc([N+](=O)[O-])c4)c(=O)n23)cc1 | > 100 µM (inactive) | > 100 µM (inactive) | > 100 µM (inactive) | 40.4 µM (inactive) | > 100 µM (inactive) | > 100 µM (inactive) | > 100 µM (inactive) | 16.7 µM (inactive) | > 100 µM (inactive) | > 100 µM (inactive) | > 100 µM (inactive) | > 100 µM (inactive) | > 100 µM (inactive) | > 100 µM (inactive) | > 100 µM (inactive) | > 100 µM (inactive) | 48.8 µM (inactive) | 84.7 µM (inactive) | – | –
3 | Cc1ccc(S(=O)(=O)NC(=O)NC(Cc2ccccc2)C(=O)O)cc1 (stereo not given) | > 100 µM (inactive) | > 100 µM (inactive) | > 100 µM (inactive) | > 100 µM (inactive) | > 100 µM (inactive) | – | > 100 µM (inactive) | > 100 µM (inactive) | > 100 µM (inactive) | > 100 µM (inactive) | > 100 µM (inactive) | > 100 µM (inactive) | > 100 µM (inactive) | – | – | > 100 µM (inactive) | > 100 µM (inactive) | > 100 µM (inactive) | > 100 µM (inactive) | –
4 | NS(=O)(=O)c1ccc(NCc2nc3ccccc3[nH]2)cc1 | > 100 µM (inactive) | – | > 100 µM (inactive) | > 100 µM (inactive) | – | > 100 µM (inactive) | > 100 µM (inactive) | > 100 µM (inactive) | > 100 µM (inactive) | > 100 µM (inactive) | > 100 µM (inactive) | > 100 µM (inactive) | – | > 100 µM (inactive) | – | > 100 µM (inactive) | > 100 µM (inactive) | > 100 µM (inactive) | > 100 µM (inactive) | > 100 µM (inactive)
5 | COc1ccc2c(c1)CN1C(=N2)CSC1c1ccccc1Cl (stereo not given) | 18.3 µM (inactive) | 11.1 µM (inactive) | 14.9 µM (inactive) | 17.9 µM (inactive) | 7.76 µM (inactive) | 12.6 µM (inactive) | 18.5 µM (inactive) | 31.6 µM (inactive) | 13.4 µM (inactive) | 18 µM (inactive) | 20.1 µM (inactive) | 12.8 µM (inactive) | 0.54 µM (active) | – | 14.4 µM (inactive) | 23.7 µM (inactive) | 15 µM (inactive) | 17.6 µM (inactive) | – | 17.1 µM (inactive)
6 | COc1ccc(/C=N/n2c(-c3ccccc3)n[nH]c2=O)cc1 | > 100 µM (inactive) | > 100 µM (inactive) | – | > 100 µM (inactive) | – | > 100 µM (inactive) | > 100 µM (inactive) | > 100 µM (inactive) | > 100 µM (inactive) | 48.8 µM (inactive) | 53.8 µM (inactive) | > 100 µM (inactive) | 46.9 µM (inactive) | > 100 µM (inactive) | > 100 µM (inactive) | – | – | > 100 µM (inactive) | > 100 µM (inactive) | > 100 µM (inactive)
7 | CC(C)[Si](OC1=C(c2ccccc2)C(NC(=O)/C=C/c2ccc([N+](=O)[O-])cc2)CCC1)(C(C)C)C(C)C (stereo not given) | > 100 µM (inactive) | – | > 100 µM (inactive) | > 100 µM (inactive) | > 100 µM (inactive) | > 100 µM (inactive) | > 100 µM (inactive) | > 100 µM (inactive) | > 100 µM (inactive) | > 100 µM (inactive) | – | > 100 µM (inactive) | > 100 µM (inactive) | > 100 µM (inactive) | > 100 µM (inactive) | > 100 µM (inactive) | > 100 µM (inactive) | – | > 100 µM (inactive) | –
8 | C[C@H]1S[C@H](c2c(F)cccc2F)n2c1nc1ccccc12 | 38.5 µM (inactive) | 71.3 µM (inactive) | > 100 µM (inactive) | 64.9 µM (inactive) | – | > 100 µM (inactive) | 66.8 µM (inactive) | > 100 µM (inactive) | 50.2 µM (inactive) | 86.5 µM (inactive) | 45.5 µM (inactive) | 37 µM (inactive) | 40.6 µM (inactive) | 24.2 µM (inactive) | 64.7 µM (inactive) | > 100 µM (inactive) | – | 55.1 µM (inactive) | > 100 µM (inactive) | 59.2 µM (inactive)
9 | CC(O)CNC(=O)Nc1c(C(F)(F)F)cc(-c2ccccc2)[nH]c1=O (stereo not given) | > 100 µM (inactive) | > 100 µM (inactive) | > 100 µM (inactive) | > 100 µM (inactive) | – | > 100 µM (inactive) | > 100 µM (inactive) | > 100 µM (inactive) | > 100 µM (inactive) | > 100 µM (inactive) | > 100 µM (inactive) | > 100 µM (inactive) | > 100 µM (inactive) | > 100 µM (inactive) | > 100 µM (inactive) | > 100 µM (inactive) | > 100 µM (inactive) | > 100 µM (inactive) | > 100 µM (inactive) | –
10 | Cc1ccc(-c2c(C#N)c(-c3ccc(Cl)cc3)c(C#N)c(=O)n2NS(=O)(=O)c2ccc(C)cc2)cc1 | 19.5 µM (inactive) | 30.3 µM (inactive) | 29.2 µM (inactive) | 42.4 µM (inactive) | – | 39.8 µM (inactive) | 43.3 µM (inactive) | 19.5 µM (inactive) | 74 µM (inactive) | 22.5 µM (inactive) | 26.6 µM (inactive) | 42.1 µM (inactive) | 16.9 µM (inactive) | – | 19.5 µM (inactive) | 56.1 µM (inactive) | 21.6 µM (inactive) | 36.2 µM (inactive) | – | 43.8 µM (inactive)
11 | C/C(CC(=O)Nc1ccc(Cl)c(Cl)c1)=N/NC(=O)C[n+]1ccccc1 | > 100 µM (inactive) | > 100 µM (inactive) | > 100 µM (inactive) | 43.1 µM (inactive) | 23.7 µM (inactive) | > 100 µM (inactive) | > 100 µM (inactive) | > 100 µM (inactive) | > 100 µM (inactive) | 88.7 µM (inactive) | > 100 µM (inactive) | 31.8 µM (inactive) | 94.2 µM (inactive) | > 100 µM (inactive) | > 100 µM (inactive) | > 100 µM (inactive) | 18.8 µM (inactive) | > 100 µM (inactive) | – | –
12 | C[C@]12CC[C@H](O)CC1=CC[C@@H]1[C@@H]2CC[C@]2(C)/C(=N/OCCN3CCCC3)CC[C@@H]12 | – | 16.5 µM (inactive) | 16.2 µM (inactive) | 18.1 µM (inactive) | 14.8 µM (inactive) | 14.5 µM (inactive) | 28.2 µM (inactive) | 21.3 µM (inactive) | 14.6 µM (inactive) | 13.7 µM (inactive) | 16.4 µM (inactive) | 16 µM (inactive) | 14.1 µM (inactive) | 16.5 µM (inactive) | 22.3 µM (inactive) | 24.1 µM (inactive) | 19.1 µM (inactive) | 25.5 µM (inactive) | – | 17.9 µM (inactive)
13 | COc1ccc(C2ON(c3ccccc3)CC=C2C)cc1 (stereo not given) | 80.7 µM (inactive) | 61.8 µM (inactive) | > 100 µM (inactive) | > 100 µM (inactive) | 37.2 µM (inactive) | > 100 µM (inactive) | 34 µM (inactive) | > 100 µM (inactive) | 42.5 µM (inactive) | 99.1 µM (inactive) | 34.5 µM (inactive) | 99.3 µM (inactive) | 52.4 µM (inactive) | > 100 µM (inactive) | > 100 µM (inactive) | > 100 µM (inactive) | > 100 µM (inactive) | 79.1 µM (inactive) | – | –
14 | C[N+](C)(C)CC(=O)N/N=C(/CC(=O)CC(C1=C(O)c2ccccc2OC1)c1ccccc1)C(=O)Nc1cccc(Cl)c1 (stereo not given) | > 100 µM (inactive) | > 100 µM (inactive) | > 100 µM (inactive) | > 100 µM (inactive) | > 100 µM (inactive) | > 100 µM (inactive) | > 100 µM (inactive) | > 100 µM (inactive) | > 100 µM (inactive) | > 100 µM (inactive) | > 100 µM (inactive) | > 100 µM (inactive) | > 100 µM (inactive) | > 100 µM (inactive) | > 100 µM (inactive) | > 100 µM (inactive) | > 100 µM (inactive) | > 100 µM (inactive) | > 100 µM (inactive) | –
15 | C=CCCCC1(C)CCNC1=S (stereo not given) | > 100 µM (inactive) | > 100 µM (inactive) | > 100 µM (inactive) | > 100 µM (inactive) | – | – | > 100 µM (inactive) | > 100 µM (inactive) | > 100 µM (inactive) | – | > 100 µM (inactive) | > 100 µM (inactive) | 66.5 µM (inactive) | > 100 µM (inactive) | > 100 µM (inactive) | > 100 µM (inactive) | – | > 100 µM (inactive) | > 100 µM (inactive) | > 100 µM (inactive)
